{
  "source": "patent US8809542B2",
  "about": "“Salts of benzimidazole compound and use thereof” (Takeda Pharmaceutical Company Limited, priority 2000, dated 2014)",
  "experiment": "Storage stability of the crystal in a hermetically sealed glass bottle, content (residual percentage) by HPLC",
  "format": "physicochemical",
  "conditions": "for description: appearance",
  "protocol": "The crystal of a sodium salt obtained in Example 1 (about 5 mg) was served into a colorless glass bottle, the bottle was hermetically sealed by a stopper, and stability of the crystal during storage at 60° C. for 4 weeks was examined. 25 ml of a sample (concentration: about 0.2 mg/ml) was prepared by dissolving the sample after completion of storage in a mobile phase. The sample solution along with a standard solution prepared by using the initial lot (a frozen sample stored for the same term), was analyzed under the HPLC conditions shown below, and the content (residual percentage) was calculated from the peak area obtained.\n[HPLC Analytical Conditions]\nDetection wavelength: UV 275 nm\nMobile phase: Fluid prepared by adding phosphoric acid to water/acetonitrile/triethylamine (63:37:1) to adjust pH 7\nColumn temperature: 40° C.\nSample injection volume: 10 μL",
  "data": [
    {"smiles": "Cc1c(OCC(F)(F)F)ccnc1C[S@@+]([O-])c1nc2ccccc2[n-]1.[Na+]", "note": "[Example 1, sodium salt of (R)-2-[[[3-methyl-4-(2,2,2-trifluoroethoxy)-2-pyridinyl]methyl]sulfinyl]-1H-benzimidazole]", "values": [
      {"measurement": "content (residual percentage)", "setting": "freeze-storage for the same term (initial lot used as standard)", "result": "[100] %"},
      {"measurement": "description", "setting": "freeze-storage", "result": "nearly white"},
      {"measurement": "content (residual percentage)", "setting": "solid crystal stored at 60° C. (airtight) for 4 weeks, HPLC peak area vs frozen initial lot, listed as crystal of Ex. 1", "result": 99.2, "unit": "%"},
      {"measurement": "content (residual percentage)", "setting": "solid crystal stored at 60° C. (airtight) for 4 weeks, HPLC peak area vs frozen initial lot, listed as crystal of a sodium salt of R(+)-lansoprazole", "result": "exceeding 99%"},
      {"measurement": "description", "setting": "solid crystal stored at 60° C. (airtight) for 4 weeks", "result": "nearly white"}
    ]}
  ]
}
